# Results: PMC5795052 (Open Biology, 2018)
# Legend:
# ACKR3 [1] = tested on: ACKR3; design: method as in 2 sources, one per row (each row's own in cited_ref): ref [29]–[32] = [29]; PMID 16940167; doi:10.1084/jem.20052144; 29 Burns JM et al. 2006 A novel chemokine receptor for SDF-1 and I-TAC involved in cell survival, cell adhesion, and tumor development . J. Exp. Med. 203 , 2201 – 2213 . ( doi:10.1084/jem.20052144 ) 1 || [30]; PMID 27875312; doi:10.1074/jbc.M116.762252; 30 Benredjem B , Girard M , Rhainds D , St-Onge G , Heveker N 2017 Mutational analysis of atypical chemokine receptor 3 (ACKR3/CXCR7) interaction with its chemokine ligands CXCL11 and CXCL12 . J. Biol || [31]; PMID 9918548; 31 Gifford AN , Bruneus M , Gatley SJ , Lan R , Makriyannis A , Volkow ND 1999 Large receptor reserve for cannabinoid actions in the central nervous system . J. Pharmacol. Exp. Ther. 288 , 478 – 483 . || [32]; PMID 8779988; doi:10.1152/ajplung.1996.270.2.L199; 32 Ethier MF , Schaefer OP , Samant N , Yamaguchi H , Madison JM 1996 Muscarinic receptor reserve for inhibition of cAMP accumulation in bovine trachealis cells . Am. J. Physiol. 270 , L199 – L207 . 8 ||| ref [24] = [24]; PMID 21757744; doi:10.1074/jbc.M111.233742; 24 Saini V , Staren DM , Ziarek JJ , Nashaat ZN , Campbell EM , Volkman BF , Marchese A , Majetschak M 2011 The CXC chemokine receptor 4 ligands ubiquitin and stromal cell-derived factor-1alpha functi; details: ref [24]; cited from earlier work
# [2] = tested on: rat mesenteric arteries (PE-induced vasoconstriction); assay: Pressure myography, PE-preconstricted isolated rat mesenteric arteries; details: 10 µM ligand; for effect on PE-induced vasoconstriction (outer diameter % change): arteries at 80 mmHg preconstricted with 2 µM PE, figure 1a, vehicle n = 4, CXCL11 n = 6, ubiquitin n = 7, *p < 0.05 versus vehicle; for effect on PE-induced vasoconstriction, comparison of ACKR3 ligands: 2 µM PE, figure 1d, vehicle n = 5, CXCL11 n = 7, CXCL11 (3–73) n = 9, CXCL12 n = 14, p < 0.05 vehicle versus CXCL11 and CXCL12, p > 0.05 CXCL11 versus CXCL12
# Experimental: (§5) (a,b) Pressure myography with rat mesenteric arteries. […] (d) Pressure myography experiments as in (a); PE-induced vasoconstriction. All ACKR3 ligands were tested at a concentration of 10 µM. […] All ACKR3 ligands were tested at a concentration of 10 µM.
# (§6) Pressure myography was performed as described in detail previously with slight modifications [7, 63]. Male Sprague–Dawley rats (Harlan) were anaesthetized with 3.5% isoflurane. The mesentery was immediately removed and placed in 130 mM NaCl, 4.7 mM KCl, 1.18 mM KH2PO4, 1.17 mM MgSO4, 14.9 mM NaHCO3, 5.5 mM D-glucose, 0.026 mM EDTA and 1.16 mM CaCl2 aerated with 95% O2, 5% CO2 at 37°C. The animal was then euthanized by cardiectomy and bilateral decompression of the lungs. Third- or fourth-order mesenteric arteries were dissected free from the mesentery, mounted onto two glass cannulae with United States Pharmacopeia (USP) scale 11-0 sutures and pressurized to 80 mmHg in a DMT 110P pressure myograph system (DMT-USA). The intraluminal solution and the vessel bath solution were the same as described before. The vessel bath solution was continuously aerated with 95% O2, 5% CO2 throughout the experiment.
# [3] = tested on: rat mesenteric arteries (aVP-induced vasoconstriction); assay: Pressure myography, aVP-preconstricted isolated rat mesenteric arteries; details: 10 µM ligand
# Experimental: as §5, §6
# ACKR3 [4] = assay: β-arrestin 2 recruitment assay (PRESTO-Tango) for ACKR3 co-expressed with pcDNA3 or HA-AVPR1A; type: cell-based, human; details: ACKR3-Tango/HA-AVPR1A versus ACKR3-Tango/pcDNA3; n = 3; figure 9e,f
# Source text: (§1) The human AVPR1A cDNA sequence was from the AVPR1A-TANGO plasmid (Addgene, plasmid #66225). The hRLuc cDNA was PCR-amplified from pIRES-Myc-hCXCR4-Rluc, which was generously provided by Dr Michel Bouvier, with primers carrying the AgeI and XbaI sites at either end, respectively, and ligated with the C-terminus of AVPR1A at the corresponding sites. Human CXCR4 and ACKR3 cDNAs were from the CXCR4-TANGO (Addgene, plasmid #66262) and the ACKR3-TANGO (Addgene, plasmid #66265) plasmids. The EYFP cDNA was PCR-amplified from pEYFP with primers harbouring AgeI and XbaI sites and ligated with the C-terminus of ACKR3. All plasmids were confirmed by sequencing.
# (§2) hVSMCs (primary aortic smooth muscle cells, ATCC PCS-100-012), A7r5 cells (ATCC-CRL-1444) and HEK293T cells (ATCC-CRL-11268) were purchased from American Type Culture Collection. hVSMCs were cultured in vascular basal media (ATCC PCS-100-030) supplemented with the vascular smooth muscle growth kit (ATCC PCS-100-042), containing 100 U ml^−1 penicillin and 100 µg ml^−1 streptomycin. hVSMCs were used between passages 2–5. HEK293T and A7r5 cells were cultured in high-glucose Dulbecco's Modified Eagle's Medium containing 10 mg ml^−1 sodium pyruvate, 2 mM L-glutamine, 10% (vol/vol) FBS, 1× non-essential amino acids, 100 U ml^−1 penicillin and 100 µg ml^−1 streptomycin. The HTLA cell line, a HEK293 cell line stably expressing a tTA-dependent luciferase reporter and a β-arrestin 2–TEV fusion gene were generously provided by the laboratory of Dr Bryan Roth and maintained in high-glucose Dulbecco's Modified Eagle's Medium supplemented with 10% (vol/vol) FBS, 1× non-essential amino acids, 100 U ml^−1 penicillin, 100 µg ml^−1 streptomycin, 50 µg ml^−1 hygromycin B and 2 µg ml^−1 puromycin. All cells were cultured in a humidified environment at 37°C, 5% CO2.
# The PRESTO-Tango (parallel receptorome expression and screening via transcriptional output, with transcriptional activation following arrestin translocation) assay was performed as recently described. The Tango plasmids were a gift from Dr Bryan Roth (all from Addgene). HTLA cells (2.5 × 10^5 per well) were seeded in a six-well plate and transfected with 1.5 µg of the Tango plasmids using Lipofectamine 3000 (ThermoScientific). The following day, transfected HTLA cells (1 × 10^5 cells per well) were plated onto poly-L-lysine precoated 96-well microplates and allowed to attach to the plate surface for at least 4 h prior to treatment. Proteins used for treatment were prepared in twice the final concentration in culture media, added at a 1 : 1 vol/vol ratio and incubated overnight at 37°C, 5% CO2 in a humidified environment. The following morning, media were removed from cell culture plates and replaced with a 100 µl 1 : 5 mixture of Bright-Glo (Promega) and 1× HBSS, 20 mM HEPES solution. Plates were then incubated at room temperature before measuring luminescence on a Biotek Synergy II plate reader.
# AVPR1A [5] = assay: Receptor internalization by flow cytometry, AVPR1A; type: cell-based, human; details: hVSMC, 1 µM agonist, up to 60 min; n = 3; figure 10b
# Experimental: (§3) The cells were washed once with ice cold DPBS, blocked and stained with rabbit anti-AVPR1A (Bioss BS-11598R) and mouse anti-ACKR3 (R&D MAB42273) antibodies at 1 : 200 dilution for 1 h on ice. Cells were then washed twice with FACS wash buffer (1× PBS, 2% FBS and 0.01% NaN3), and secondary antibodies were added at a 1 : 500 dilution and incubated for 30 min on ice (donkey anti-rabbit Alexa Fluor 647, Invitrogen A-31573 and donkey anti-mouse Alexa Fluor 488, Invitrogen A-21202). Cells were washed twice with FACS wash buffer and then fixed with 4% paraformaldehyde at room temperature for 15 min. After two additional washes, the cells were counted on a BD FACS Canto II (BD Biosciences) flow cytometer. The fluorescence intensities of at least 3 × 10^4 cells were recorded and analysed using the FlowJo software (Tree Star).
# ACKR3 [6] = assay: Receptor internalization by flow cytometry, ACKR3; type: cell-based, human; details: hVSMC, 1 µM agonist, up to 60 min; n = 3; figure 10c
# Experimental: as §3
# AVPR1A [7] = molecular target: T1, AVPR1A (Homo sapiens, UniProt P37288); assay: β-arrestin 2 recruitment assay (PRESTO-Tango) for AVPR1A co-expressed with HA-ACKR3; type: cell-based; design: FLAG (N); Tango module (C-terminal fusion of the PRESTO-Tango plasmid); ACKR3 cDNA from plasmid #66265; host or cells: HTLA cells (HEK293 line with tTA-dependent luciferase reporter and β-arrestin 2–TEV fusion); details: n = 3, figure 9c
# Source text: as §1
# (§4) hVSMCs (primary aortic smooth muscle cells, ATCC PCS-100-012), A7r5 cells (ATCC-CRL-1444) and HEK293T cells (ATCC-CRL-11268) were purchased from American Type Culture Collection. hVSMCs were cultured in vascular basal media (ATCC PCS-100-030) supplemented with the vascular smooth muscle growth kit (ATCC PCS-100-042), containing 100 U ml^−1 penicillin and 100 µg ml^−1 streptomycin. hVSMCs were used between passages 2–5. HEK293T and A7r5 cells were cultured in high-glucose Dulbecco's Modified Eagle's Medium containing 10 mg ml^−1 sodium pyruvate, 2 mM L-glutamine, 10% (vol/vol) FBS, 1× non-essential amino acids, 100 U ml^−1 penicillin and 100 µg ml^−1 streptomycin. […]
# Target sequence in this assay (P37288 whole entry, the tested form may be a part): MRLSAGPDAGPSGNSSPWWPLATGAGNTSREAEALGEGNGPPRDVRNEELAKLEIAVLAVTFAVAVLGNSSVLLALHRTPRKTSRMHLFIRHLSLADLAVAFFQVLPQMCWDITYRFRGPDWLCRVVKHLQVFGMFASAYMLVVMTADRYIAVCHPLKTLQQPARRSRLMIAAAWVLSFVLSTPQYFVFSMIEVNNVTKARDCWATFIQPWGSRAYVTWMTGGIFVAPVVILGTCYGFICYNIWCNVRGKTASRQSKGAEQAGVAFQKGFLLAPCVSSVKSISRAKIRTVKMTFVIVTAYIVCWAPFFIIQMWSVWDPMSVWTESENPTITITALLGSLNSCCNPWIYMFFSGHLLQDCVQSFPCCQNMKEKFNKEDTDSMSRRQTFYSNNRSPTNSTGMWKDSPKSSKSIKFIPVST
# Target sequence in this assay (P25106 whole entry partner, the tested form may be a part): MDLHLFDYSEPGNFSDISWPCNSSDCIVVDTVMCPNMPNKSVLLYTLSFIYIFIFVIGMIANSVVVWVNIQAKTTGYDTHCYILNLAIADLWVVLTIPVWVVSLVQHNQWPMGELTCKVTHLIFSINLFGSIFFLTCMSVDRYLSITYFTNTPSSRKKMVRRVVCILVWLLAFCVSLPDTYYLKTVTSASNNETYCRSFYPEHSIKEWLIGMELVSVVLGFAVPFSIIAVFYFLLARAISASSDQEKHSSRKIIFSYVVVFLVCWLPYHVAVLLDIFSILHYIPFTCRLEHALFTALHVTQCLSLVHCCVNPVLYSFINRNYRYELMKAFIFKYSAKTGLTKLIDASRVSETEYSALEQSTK
# ACKR3 [8] = assay: β-arrestin 2 recruitment assay (PRESTO-Tango) for ACKR3; type: cell-based, human
# Source text: as §1
# as §2, with “All cells were cultured in a humidified environment at 37°C, 5% CO2.” left out
# The PRESTO-Tango (parallel receptorome expression and screening via transcriptional output, with transcriptional activation following arrestin translocation) assay was performed as recently described. […] Plates were then incubated at room temperature before measuring luminescence on a Biotek Synergy II plate reader.
# [9] = tested on: aVP-induced IP3 production in hVSMC; assay: IP3 production (ELISA) in hVSMC upon aVP stimulation; type: cell-based, human; details: ACKR3 ligands 1 µM, 15 min, then 1 µM aVP for 5 min; n = 4; figure 1f; *p < 0.05 versus vehicle-treated cells
# Experimental: as §2
# ACKR3 and CXCR4 siRNA gene silencing was performed as described previously. In brief, cells were grown in 2 ml Accell siRNA delivery media per well (Dharmacon) in six-well plates (Nunc). Commercially available Accell ACKR3 and CXCR4 siRNA were reconstituted with 1× siRNA buffer to a stock concentration of 100 µM. Cells were then transfected with 1 µM ACKR3/CXCR4 siRNA and incubated for 72 h at 37°C, 5% CO2. Accell NT-siRNA pool was used as a negative control. After 72 h, cells were assayed for receptor cell surface expression and used for signalling experiments.
# IP3 enzyme-linked immunosorbent assays were purchased from LS Bio and performed as per the manufacturer's protocol (LS BIO F10644). In brief, hVSMCs were grown to confluency in six-well dishes (Nunc) and then treated as described in the Results section. Cells were then washed once with cold PBS, 225 µl of cold PBS was added to each well and cells were lysed by ultrasonication. The cell lysate was centrifuged for 10 min at 4°C at 1500g to remove cellular debris. The total protein concentration in the supernatant was determined with the Bio-Rad DC Protein Assay as per the manufacturer's protocol (Bio-Rad 500-0116). Equivalent amounts of total protein were added to the ELISA strips diluted in the provided sample diluent (1 : 5 and 1 : 10). The assay was then completed as per the manufacturer's protocol. Optical densities were read on a Biotek Synergy II microplate reader (absorbance at 450 nm), and IP3 concentrations were extrapolated from the standard curve.
# ACKR3 [10] = tested on: ACKR3; design: method as in PMID 27875312; details: BRET-based assay; CXCL12 versus CXCL11; ref [30]; cited from earlier work
# AVPR1A [11] = molecular target: T1, AVPR1A; assay: β-arrestin 2 recruitment assay (PRESTO-Tango) for AVPR1A without ACKR3 co-expression; type: cell-based; design: FLAG (N); Tango module (C-terminal fusion of the PRESTO-Tango plasmid); host or cells: HTLA cells (HEK293 line with tTA-dependent luciferase reporter and β-arrestin 2–TEV fusion); details: AVPR1A-Tango/pcDNA3; n = 3; figure 9c
# Source text: as §1, §4
# Target sequence in this assay (P37288 whole entry, the tested form may be a part): as the sequence (P37288 whole entry, the tested form may be a part) above
Substance,binding to ACKR3 (ACKR3 [1]),effect on PE-induced vasoconstriction (outer diameter % change) [2],"effect on aVP-induced vasoconstriction (outer diameter % change) ([3]; arteries at 80 mmHg preconstricted with 0.5 nM aVP, figure 1b, *p < 0.05 versus vehicle)",effect of AVPR1A co-expression on efficacy to recruit β-arrestin 2 to ACKR3-Tango (ACKR3 [4]),effect of AVPR1A co-expression on potency to recruit β-arrestin 2 to ACKR3-Tango (ACKR3 [4]),AVPR1A cell surface expression after agonist (AVPR1A [5]),ACKR3 cell surface expression after agonist (ACKR3 [6]),"effect on PE-induced vasoconstriction, comparison of ACKR3 ligands [2]","β-arrestin 2 recruitment to AVPR1A-Tango by chemokines, presence of ACKR3 (AVPR1A [7])","potency to recruit β-arrestin 2 to ACKR3, fold higher than CXCL11 (ACKR3 [8]; CXCL12 versus CXCL11, p < 0.01)","efficacy for β-arrestin 2 recruitment to ACKR3 (in words) (ACKR3 [8]; HTLA cells, n = 3, CXCL11 versus CXCL12)","EC50 (ACKR3 [8]; HTLA cells, overnight at 37°C, luminescence, n = 3 independent experiments, 95% confidence interval in brackets, read-out: EC50 (95% CI) β-arrestin 2 recruitment to ACKR3)",effect of ACKR3 ligand pretreatment on aVP-induced IP3 production [9],"potency to induce β-arrestin recruitment to ACKR3, fold higher than CXCL11 (ACKR3 [10])","effect on aVP-induced vasoconstriction, comparison of ACKR3 ligands ([3]; 0.5 nM aVP, figure 1e, vehicle n = 4, CXCL11 n = 3, CXCL11 (3–73) n = 3, CXCL12 n = 3, p < 0.05 vehicle versus CXCL11 and CXCL12, p > 0.05 CXCL11 versus CXCL12)","β-arrestin 2 recruitment to AVPR1A-Tango by chemokines, absence of ACKR3 (AVPR1A [11])"
ubiquitin,does not bind to ACKR3,enhanced PE-induced vasoconstriction,did not affect aVP-induced vasoconstriction,,,,,,,,,,,,,
"CXCL11: ACKR3 and CXCR3 agonist, from Protein Foundry",,antagonized PE-induced vasoconstriction,,significantly reduced the efficacy,without affecting the potency,time-dependently reduced expression levels of both AVPR1A and ACKR3,time-dependently reduced expression levels of both AVPR1A and ACKR3,attenuated PE- and aVP-induced vasoconstriction to a similar degree,did not induce β-arrestin 2 recruitment to AVPR1A-Tango,,,,,,,
C-X-C chemokine ligand 12 [CXCL12],,,,significantly reduced the efficacy,without affecting the potency,,,attenuated PE- and aVP-induced vasoconstriction to a similar degree,did not induce β-arrestin 2 recruitment to AVPR1A-Tango,2.2 -fold,comparable efficacy,1.3 nM,inhibited aVP-induced IP3 production,twofold higher,attenuated PE- and aVP-induced vasoconstriction to a similar degree,did not induce β-arrestin 2 recruitment to AVPR1A-Tango
